Experimental data as given in PubChem BioAssay AID790 (SRMLSC, 2007).
Active and inactive are the calls of the source. The rule behind the calls is not given here.

Tests used:
[1] = vps1Δ single mutant yeast growth suppression – S. cerevisiae, background strain comparison, dose response (AID 790); settings: S. cerevisiae vps1Δ mutant growth inhibition; measured here: background strain growth inhibition
[2] = system: S. cerevisiae vps1Δ mutant growth inhibition; experiment: as above

Row | Compound | IC50 [1] [µM] | IC50 [2]
1 | O=C(N/N=C/c1ccc([N+](=O)[O-])o1)c1cc(-c2cccc(Br)c2)nc2ccccc12 | 4.65 | 0.918 µM
2 | Cn1c(=O)cc(NCc2ccccc2)[nH]c1=O | > 10 | > 10 µM (inactive)
3 | O=C(Nc1nnc(C2CC2)o1)c1ccc(S(=O)(=O)N2CCCc3ccccc32)cc1 | 3.17 | 11.9 µM (inactive)
4 | O=C(N/N=C/c1ccc(OC(=O)c2ccccc2)cc1)c1ccc(CN2CCOCC2)cc1 | > 10 | > 10 µM (inactive)
5 | Cc1cc(C)c2c(c1)/C(=C/C(=O)c1ccc(Br)s1)C(=O)N2 | 1.42 | 3.71 µM (inactive)
6 | CCN(CC)C(=O)C1CCN(Cc2ccc(Br)cc2)CC1 | > 10 | > 10 µM (inactive)
7 | Cc1c(Cl)c([N+](=O)[O-])nn1Cc1ccc(C(=O)N/N=C\c2cccc(Br)c2)o1 | > 10 | < 0.049 µM
8 | COc1cc(CN2CCN(c3ccc(C)cc3)CC2)cc([N+](=O)[O-])c1O | > 10 | > 10 µM (inactive)
9 | Cc1cc(N2C(=O)C3CCCN3C2c2sccc2C)no1 (centres undefined) | > 10 | > 10 µM (inactive)
10 | COCCNc1cc(C)nc2c3c(C)cc(C)nc3nn12 | > 10 | > 10 µM (inactive)
11 | O=S(=O)(c1cnccc1N1CCN(/N=C/c2ccc(Br)cc2)CC1)N1CCCCC1 | > 10 | > 10 µM (inactive)
12 | Cc1cc(=O)oc2c(CN3CCCCC3)c(O)c(Cl)cc12 | > 10 | > 10 µM (inactive)
13 | CCCCCOc1ccc(Cl)cc1CN1CCOCC1 | > 10 | > 10 µM (inactive)
14 | Cc1cc(C)nc(NC(=O)CSc2nn(C)c(=S)s2)n1 | > 10 | > 10 µM (inactive)
15 | O=C(NCc1ccc2c(c1)OCO2)c1ccc(CS(=O)(=O)c2cccc(C(F)(F)F)c2)o1 | > 10 | > 10 µM (inactive)
16 | COc1ccccc1N1CCN(Cc2ccccc2F)CC1 | > 10 | > 10 µM (inactive)
17 | COc1cccc(NC(=O)C2CCCN2C(=O)OCc2ccccc2)c1 (centres undefined) | > 10 | > 10 µM (inactive)
18 | Cc1ccc(C)c(C(=O)NCc2ccncc2)c1 | > 10 | > 10 µM (inactive)
19 | Cc1cc(=O)[nH]c(SCC(=O)c2ccc(C)c(C)c2)n1 | 2.31 | 0.896 µM
20 | Cc1cccc(OCC(=O)O/N=C(\N)Cc2ccc(Cl)cc2)c1 | 10.4 | > 10 µM (inactive)
21 | Cc1ccc(C(=O)NCc2occc2C(=O)O)o1 | > 10 | > 10 µM (inactive)

Row | Compound | IC50 [1] [µM] | IC50 [2]
22 | CC1CN(CCCCOc2ccc(C(C)C)cc2)CC(C)O1 (centres undefined) | > 10 | > 10 µM (inactive)
23 | NC(=O)c1ccsc1NC(=O)c1nc(-c2ccccc2)n(-c2ccccc2)n1 | > 10 | > 10 µM (inactive)
24 | CCOC(=O)NC(Nc1ccc(S(N)(=O)=O)cc1)(C(=O)OCC)C(F)(F)F (centres undefined) | > 10 | > 10 µM (inactive)
25 | Cc1ccc(S(=O)(=O)N2CC3CC(C2)c2cccc(=O)n2C3)cc1 (centres undefined) | > 10 | > 10 µM (inactive)
26 | COc1ccc(CN(C(=O)Cc2cccs2)C(C(=O)NC2CCCC2)c2ccncc2)cc1 (centres undefined) | > 10 | > 10 µM (inactive)
27 | COC(=O)c1ccc(CSc2nnc(NC(C)C)s2)cc1 | > 10 | > 10 µM (inactive)
28 | CN1CCN(CCCNC(=O)Cn2nc(-c3ccccc3)ccc2=O)CC1 | > 10 | > 10 µM (inactive)
29 | COc1ccc(C(=O)c2c(C(F)(F)F)oc3c2C(=O)c2ccccc2C3=O)cc1 | 2.32 | 1.99 µM
30 | CC(C)OC(=O)CSc1nnc(-c2ccc(Cl)cc2)n1N | > 10 | > 10 µM (inactive)
31 | CCOC(=O)C1=C(N)N2C(=O)C(C)SC2=C(C(=O)OC)C1c1ccccc1OC (centres undefined) | 0.163 | > 10 µM (inactive)
32 | O=[N+]([O-])c1ccc(N2CCN(S(=O)(=O)c3ccc(Cl)cc3)CC2)cc1NCc1cccnc1 | > 10 | > 10 µM (inactive)
33 | O=C(O)Cn1c(SCCOc2ccccc2F)nc2ccccc21 | > 10 | > 10 µM (inactive)
34 | O=C(O)c1ccc(N2CCCCC2)cc1 | > 10 | > 10 µM (inactive)
35 | O=C(NCCSCc1ccc(Cl)cc1Cl)c1ccc(CN2CCOCC2)cc1 | > 10 | > 10 µM (inactive)
36 | CS(=O)(=O)N1CCC(C(=O)NCCN2CCN(Cc3ccccc3)CC2)CC1 | > 10 | > 10 µM (inactive)
37 | CCOC(=O)c1cccnc1SCc1cc(=O)n2ccccc2n1 | > 10 | > 10 µM (inactive)
38 | O=C(O)c1cc(-c2ccc(/C=N/Nc3ccc(Cl)cc3)o2)ccc1Cl | 16.4 | 4.51 µM
39 | O=C(Nc1cccc(Cl)c1)N1CCN(C/C=C/c2ccccc2)CC1 | > 10 | > 10 µM (inactive)
40 | COc1ccc2oc(=O)c(-c3nnc(NCc4ccco4)s3)cc2c1 | > 10 | > 10 µM (inactive)
41 | O=[N+]([O-])c1cc(C(F)(F)F)ccc1N/N=C/c1cc2ccccc2nc1Cl | > 10 | > 10 µM (inactive)
42 | C/C(CCC12CC3CC(CC(C3)C1)C2)=N\NC(N)=S | 5.28 | 12.7 µM (inactive)

Row | Compound | IC50 [1] [µM] | IC50 [2]
43 | COc1cc2[nH]c(=S)n(CCCN3CCOCC3)c(=O)c2cc1OC | > 10 | > 10 µM (inactive)
44 | CCN(CC)CCn1nc(C)nc1-c1ccccc1O | > 10 | > 10 µM (inactive)
45 | Cc1ccc(S(=O)(=O)N2CCN(C3CCN(Cc4ccccc4)CC3)CC2)cc1 | > 10 | > 10 µM (inactive)
46 | Cn1nnc2cc(C(=O)Nc3cccnc3)ccc21 | > 10 | > 10 µM (inactive)
47 | O=C(Cc1cccs1)Nc1nc2c(s1)CCCC2 | > 10 | > 10 µM (inactive)
48 | CCCCSCCCNC(=O)Nc1cccc(OC)c1 | > 10 | > 10 µM (inactive)
49 | COC(=O)c1ccc(NC(=O)c2cn(-c3ccccc3)nc2-c2ccncc2)cc1 | > 10 | > 10 µM (inactive)
50 | CCOC(=O)c1ccc(NC(=O)c2ccc(CN3CCOCC3)cc2)cc1 | > 10 | > 10 µM (inactive)
51 | Clc1ccc(-c2n[nH]c3c2CCC3)cc1Cl | 1.81 | 1.07 µM
52 | CC1CC(C)CN(CC(C)(C)NS(=O)(=O)c2ccc(Cl)cc2)C1 (centres undefined) | > 10 | > 10 µM (inactive)
53 | CCOc1ccc(NC(=O)C/C(N)=N/O)cc1 | > 10 | > 10 µM (inactive)
54 | Cc1nn(-c2ccccn2)c(C)c1Oc1ccccc1O | > 10 | > 10 µM (inactive)
55 | FC(F)(F)COc1nc(N2CCCCC2)nc(N2CCNCC2)n1 | > 10 | > 10 µM (inactive)
56 | Clc1ccc(-c2cnc(Oc3ccccc3)nc2)cc1 | > 10 | > 10 µM (inactive)
57 | COc1ccc(N2CCN(c3oc(-c4ccco4)nc3C#N)CC2)cc1 | > 10 | > 10 µM (inactive)
58 | CCc1n[nH]c2c1/C(=N\O)CC(C)(C)C2 | > 10 | > 10 µM (inactive)
59 | O=C(COc1ccc(Cl)cc1)Nc1ccc(N2CCN(C(=O)c3ccco3)CC2)cc1 | > 10 | > 10 µM (inactive)
60 | O=C(Nc1nc(-c2ccccn2)cs1)c1ncc(Cl)c(Cl)c1Cl | 13.3 | 2.06 µM
61 | CC1=CC(C)(C)Nc2ccc(OC(=O)CN3C(=O)c4cccc5cccc(c45)C3=O)cc21 | > 10 | > 10 µM (inactive)
62 | CCOC(=O)COc1ccccc1C1Nc2ccccc2C(=O)N1c1cccc(Cl)c1 (centres undefined) | > 10 | > 10 µM (inactive)
63 | O=C(Nc1nnc(-c2ccc(Cl)cc2)o1)c1ccccc1Br | 13.1 | 2.37 µM

Row | Compound | IC50 [1] [µM] | IC50 [2]
64 | O=C(Nc1nnc(-c2ccc3c(c2)CCCC3)o1)c1ccc(Cl)cc1Cl | 3.46 | 1.18 µM
65 | COc1ccc(-c2nnc(CSc3nc4ccccc4c(=O)n3C)o2)cc1OC | > 10 | > 10 µM (inactive)
66 | Cc1ccc(S(=O)(=O)N(CC(=O)N2CCC(C(N)=O)CC2)c2cccc(C(F)(F)F)c2)cc1 | > 10 | > 10 µM (inactive)
67 | Cc1cccnc1Nc1nc(-c2ccccn2)cs1 | > 10 | 4.17 µM
68 | c1ccc(COc2ccc(CN3CCN(c4ccccn4)CC3)cc2)cc1 | > 10 | > 10 µM (inactive)
69 | CCCCS(=O)(=O)/C=C\C=C/S(=O)(=O)CCCC | 13.9 | 12.1 µM
70 | O=C(CCC(=O)OCC(=O)c1ccc(F)cc1)NC1CCCCC1 | > 10 | > 10 µM (inactive)
71 | O=C(Cn1ncc2c3ccccc3n(Cc3ccccc3F)c2c1=O)N1CCC2(CC1)OCCO2 | > 10 | > 10 µM (inactive)
72 | Cc1cc([N+](=O)[O-])c(-c2ccc(/C=N/n3cnnc3)o2)cc1Cl | 0.134 | 0.115 µM
73 | CCN1CCN(c2c(Cl)cccc2NC(=O)c2ccc(Br)o2)CC1 | > 10 | > 10 µM (inactive)
74 | CCn1c(SCC(=O)N2CCCc3ccccc32)nnc1-c1ccco1 | > 10 | > 10 µM (inactive)
75 | Cc1ccc(C2(C(F)(F)F)N=C3Sc4cc(C)cc(C)c4N3C(=O)N2)cc1 (centres undefined) | 1.08 | 1.37 µM (inactive)
76 | N#CC1=C(N)C(C#N)(C#N)C(c2cccnc2)C2CC(c3ccccc3)CC=C12 (centres undefined) | 2.97 | 3.03 µM (inactive)
77 | CCc1cc(=O)oc2cc(C)c(CN3CCCC(C)C3)c(O)c12 (centres undefined) | > 10 | > 10 µM (inactive)
78 | C=CCc1ccc(OCCCCN2CC(C)OC(C)C2)c(OC)c1 (centres undefined) | > 10 | > 10 µM (inactive)
79 | CC(C)(C)n1nnnc1CN(Cc1cccnc1)Cc1ccccc1Cl | > 10 | > 10 µM (inactive)
80 | CCOCCCNC(=O)C1CCN(C(=O)N(C)C)CC1 | > 10 | > 10 µM (inactive)
81 | N#CC1=C2SCC(O)(c3ccccc3)N2C(=O)CC1c1ccccc1 (centres undefined) | > 10 | > 10 µM (inactive)
82 | CCOC(=O)N1CCN(c2ccc(S(=O)(=O)N(Cc3ccccc3)Cc3ccccc3)cn2)CC1 | > 10 | > 10 µM (inactive)
